# Measured values from ChEMBL document CHEMBL4706626, “Triterpenoid-Mediated Inhibition of Virus-Host Interaction: Is Now the Time for Discovering Viral Entry/Release Inhibitors from Nature?” (J Med Chem, 2020).
# Key:
# [1] = tested on: Human immunodeficiency virus 1; assay: Antiviral activity against HIV-1 NL4-3; format: functional, organism-based; conditions: Human immunodeficiency virus 1, NL4-3
# [2] = tested on: Human immunodeficiency virus 1; assay: Antiviral activity against HIV-1 harboring V307A mutant; format: functional, organism-based
# HEK293T = assay: Inhibition of Ebola virus pseudoparticle GP HR2 domain-mediated viral entry into human 293T cells at 1 uM incubated for 72 hrs by Bright-Glo reagent based assay relative to control; format: cell-based; conditions: Ebolavirus
# [3] = tested on: Human immunodeficiency virus 1; assay: Anti-HIV-1 activity against HIV1 IIIB/LAI infected in human CEM 4 cells assessed as reduction in virus-indued cytopathic effect treated for 1 hr with cells followed by viral infection and measured after 5 days; format: functional, organism-based; conditions: Human immunodeficiency virus 1, IIIB/LAI
# [4] = Inhibition of Zaire Ebola virus pseudoparticle GP HR2 domain-mediated virus-host fusion in human 293T cells incubated for 72 hrs by Bright-Glo reagent based assay; format: cell-based, Zaire ebolavirus; conditions: hek293t
# [5] = Inhibition of Zaire Ebola virus pseudoparticle GP HR2 domain-mediated virus-host fusion in human A549 cells incubated for 72 hrs by Bright-Glo reagent based assay; format: cell-based, Zaire ebolavirus
# [6] = tested on: Human immunodeficiency virus 1; assay: Anti-HIV-1 activity against HIV1 NL4-3 infected in human HeLa expressing CD4/CCR5/beta-gal assessed as inhibition of syncytium formation incubated for 2 days by MAGI assay; format: functional, organism-based; conditions: Human immunodeficiency virus 1, NL4-3, HeLa, 48 h
# [7] = Antiviral activity against Ebola virus Makona infected in human foreskin fibroblast pretreated for 2 hrs followed by viral infection for 48 hrs by Alexa Fluor 488 staining based assay; format: functional, cell-based; conditions: Zaire ebolavirus
# [8] = Binding affinity to EBOV envelope glycoprotein HR2 domain assessed as reduction in HR1-HR2 interaction by measuring Kd for HR1-HR2 affinity by surface plasmon resonance (reference value: 1 uM); set-up: species or system Ebolavirus
# [9] = Antiviral activity against Ebola virus Makona infected in human HeLa cells pretreated for 2 hrs followed by viral infection for 48 hrs by Alexa Fluor 488 staining based assay; format: functional, cell-based; conditions: Zaire ebolavirus
# [10] = Binding affinity to EBOV envelope glycoprotein HR2 domain by surface plasmon resonance; set-up: species or system Ebolavirus
# Human coronavirus 229E = assay: Antiviral activity against HCoV-229E infected in human MRC5 cells incubated for 2 hrs by XTT method; format: functional, organism-based; conditions: MRC5, 2 h
# [11] = Selectivity index, ratio of CC50 for human MRC5 cells to EC50 for HCoV-229E infected in human MRC5 cells; format: toxicity, cell-based; conditions: MRC5 cells (CC50) and HCoV-229E-infected MRC5 cells (EC50)
# Hepatitis C virus = assay: Antiviral activity against HCV pseudoparticle infected in Huh-7 cells assessed as inhibition of viral entry pretreated for 30 mins with cells followed by viral infection for 4 hrs and subsequent compound wash out and measured after 72 hrs by Bright-Glo reagent based luciferase assay; format: functional, organism-based, Hepacivirus hominis
# [12] = tested on: Human immunodeficiency virus 1; assay: Anti-HIV-1 activity against HIV1 IIIB infected in human H9 cells assessed as in p24 antigen production by sandwich ELISA; format: functional, organism-based; conditions: Human immunodeficiency virus 1, IIIB
# [13] = Aqueous solubility of compound; format: physicochemical
# Albumin = Albumin (Homo sapiens, UniProt P02768); assay: Protein binding in human serum albumin; format: ADME; conditions: read-out: PB
# Chain of Albumin (P02768 whole entry): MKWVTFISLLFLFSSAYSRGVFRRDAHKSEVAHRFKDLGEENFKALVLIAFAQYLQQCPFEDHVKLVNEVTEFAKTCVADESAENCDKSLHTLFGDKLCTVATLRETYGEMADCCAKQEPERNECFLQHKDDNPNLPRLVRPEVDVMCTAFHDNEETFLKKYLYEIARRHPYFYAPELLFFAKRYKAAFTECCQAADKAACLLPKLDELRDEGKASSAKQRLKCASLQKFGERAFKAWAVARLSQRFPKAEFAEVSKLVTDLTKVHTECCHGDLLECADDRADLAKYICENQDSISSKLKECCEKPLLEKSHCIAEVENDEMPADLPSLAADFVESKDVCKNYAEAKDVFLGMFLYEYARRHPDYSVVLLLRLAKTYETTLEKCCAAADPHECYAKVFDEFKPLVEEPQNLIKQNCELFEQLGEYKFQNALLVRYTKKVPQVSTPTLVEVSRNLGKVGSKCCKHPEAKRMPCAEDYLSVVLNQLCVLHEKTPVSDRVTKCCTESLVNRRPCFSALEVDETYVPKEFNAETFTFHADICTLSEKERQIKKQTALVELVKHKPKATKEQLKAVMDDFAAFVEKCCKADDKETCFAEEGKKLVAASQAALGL
smiles,measurement,setting,value
CC(C)C1=C2[C@H]3CC[C@@H]4[C@@]5(C)CC[C@H](OC(=O)CC(C)(C)C(=O)O)C(C)(C)[C@@H]5CC[C@@]4(C)[C@]3(C)CC[C@@]2([C@@H](O)CN(CCN(C)C)Cc2ccc(Cl)cc2)CC1=O [GSK2838232],IC50,[1],0.00081 µM
same,IC50,[2],0.00071 µM
CC1(C)CC[C@]2(C(=O)N[C@@H]3O[C@H](CO)[C@H](O)[C@H](O)[C@H]3O)CC[C@]3(C)C(=CC[C@@H]4[C@@]5(C)CC[C@H](O)C(C)(C)[C@@H]5CC[C@]43C)[C@@H]2C1,inhibition,HEK293T,16%
C=C(C)[C@@H]1CC[C@]2(C(=O)NCCCCCCCCCCC(=O)O)CC[C@]3(C)[C@H](CC[C@@H]4[C@@]5(C)CC[C@H](O)C(C)(C)[C@@H]5CC[C@]43C)[C@@H]12,IC50,[3],0.23 µM
CC(=O)OC[C@H]1O[C@@H](NC(=O)[C@]23CCC(C)(C)C[C@H]2C2=CC[C@@H]4[C@@]5(C)CC[C@H](O)C(C)(C)[C@@H]5CC[C@@]4(C)[C@]2(C)C[C@H]3O)[C@H](OC(C)=O)[C@@H](OC(C)=O)[C@H]1OC(C)=O,inhibition,HEK293T,22%
CC1(C)CC[C@]2(C(=O)O)[C@H](O)C[C@]3(C)C(=CC[C@@H]4[C@@]5(C)CC[C@H](O)C(C)(C)[C@@H]5CC[C@]43C)[C@@H]2C1,inhibition,HEK293T,2%
CC(=O)OC[C@H]1O[C@@H](NC(=O)[C@]23CCC(C)(C)C[C@H]2C2=CC[C@@H]4[C@@]5(C)CCC(=O)C(C)(C)[C@@H]5CC[C@@]4(C)[C@]2(C)CC3)[C@H](OC(C)=O)[C@@H](OC(C)=O)[C@H]1OC(C)=O,IC50,[4],0.467 µM
same,IC50,[5],0.467 µM
same,inhibition,HEK293T,93%
C=C(C)[C@@H]1CC[C@]2(C(=O)NCCCCCCCC(=O)N[C@@H](CC(C)C)[C@H](O)CC(=O)O)CC[C@]3(C)[C@H](CC[C@@H]4[C@@]5(C)CC[C@H](O)C(C)(C)[C@@H]5CC[C@]43C)[C@@H]12,EC50,[6],0.4 µM
CC(=O)OC[C@H]1O[C@@H](NC(=O)[C@]23CCC(C)(C)C[C@H]2C2=CC[C@@H]4[C@@]5(C)CCC(=O)C(C)(C)[C@@H]5CC[C@@]4(C)[C@]2(C)CC3=O)[C@H](OC(C)=O)[C@@H](OC(C)=O)[C@H]1OC(C)=O,EC50,[7],0.99 µM
same,IC50,[4],0.0592 µM
same,IC50,[5],0.0592 µM
same,Kd,[8],23.4 µM
same,inhibition,HEK293T,99%
same,EC50,[9],0.46 µM
same,Kd,[10],5.4 µM
CC1(C)CC[C@]2(C(=O)O)CC[C@]3(C)C(=CC[C@@H]4[C@@]5(C)CCC(=O)C(C)(C)[C@@H]5CC[C@]43C)[C@@H]2C1,inhibition,HEK293T,25%
C[C@H]1O[C@@](O)(O[C@H]2CC[C@@]3(C)[C@@H](CC[C@]4(C)[C@@H]3C=CC3=C5CC(C)(C)CC[C@]5(CO)[C@H](O)C[C@]34C)[C@]2(C)CO)[C@H](O)[C@@H](O[C@@H]2O[C@H](CO)[C@@H](O)[C@H](O)[C@H]2O)[C@H]1O,IC50,Human coronavirus 229E,1.7 µM
same,selectivity ratio,[11],222
CC1(C)CC[C@]2(C(=O)N[C@@H]3O[C@H](CO)[C@@H](O)[C@H](O)[C@@H]3O)[C@H](O)C[C@]3(C)C(=CC[C@@H]4[C@@]5(C)CC[C@H](O)C(C)(C)[C@@H]5CC[C@]43C)[C@@H]2C1,inhibition,HEK293T,3%
CC1(C)CC[C@]2(C(=O)N[C@@H]3O[C@H](CO)[C@H](O)[C@H](O)[C@H]3O)C(=O)C[C@]3(C)C(=CC[C@@H]4[C@@]5(C)CCC(=O)C(C)(C)[C@@H]5CC[C@]43C)[C@@H]2C1,inhibition,HEK293T,6%
CC1(C)CC[C@]2(C(=O)O)CC[C@]3(C)C(=CC[C@@H]4[C@@]5(C)CC[C@H](O)C(C)(C)[C@@H]5CC[C@]43C)[C@@H]2C1 [OLEANOLIC_ACID],IC50,Hepatitis C virus,10 µM
same,inhibition,HEK293T,1%
CC(C)C[C@H](NC(=O)CCCCCCCNC(=O)[C@]12CC[C@@H](C(C)C)[C@@H]1[C@H]1CC[C@@H]3[C@@]4(C)CC[C@H](O)C(C)(C)[C@@H]4CC[C@@]3(C)[C@]1(C)CC2)[C@H](O)CC(=O)O,EC50,[6],0.33 µM
CC(=O)OC[C@H]1O[C@@H](NC(=O)[C@]23CCC(C)(C)C[C@H]2C2=CC[C@@H]4[C@@]5(C)CC[C@H](O)C(C)(C)[C@@H]5CC[C@@]4(C)[C@]2(C)C[C@H]3O)[C@@H](OC(C)=O)[C@@H](OC(C)=O)[C@@H]1OC(C)=O,inhibition,HEK293T,17%
CC1(C)CC[C@]2(C(=O)N[C@@H]3O[C@H](CO)[C@H](O)[C@H](O)[C@H]3O)CC[C@]3(C)C(=CC[C@@H]4[C@@]5(C)CCC(=O)C(C)(C)[C@@H]5CC[C@]43C)[C@@H]2C1,inhibition,HEK293T,7%
C#CCN(CCCC1(C)N=N1)C(=O)[C@]12CCC(C)(C)C[C@H]1C1=CC[C@@H]3[C@@]4(C)CCC(=O)C(C)(C)[C@@H]4CC[C@@]3(C)[C@]1(C)CC2=O,Kd,[10],16.8 µM
CC(=O)OC[C@H]1O[C@@H](NC(=O)[C@]23CCC(C)(C)C[C@H]2C2=CC[C@@H]4[C@@]5(C)CC[C@H](O)C(C)(C)[C@@H]5CC[C@@]4(C)[C@]2(C)CC3)[C@@H](OC(C)=O)[C@@H](OC(C)=O)[C@@H]1OC(C)=O,inhibition,HEK293T,-4%
CC(=O)OC[C@H]1O[C@@H](NC(=O)[C@]23CCC(C)(C)C[C@H]2C2=CC[C@@H]4[C@@]5(C)CC[C@H](O)C(C)(C)[C@@H]5CC[C@@]4(C)[C@]2(C)CC3)[C@H](OC(C)=O)[C@@H](OC(C)=O)[C@H]1OC(C)=O,inhibition,HEK293T,32%
CC1(C)CCC2C(=O)C[C@]3(C)C(=CC[C@@H]4[C@@]5(C)CCC(=O)C(C)(C)[C@@H]5CC[C@]43C)[C@@H]2C1 (stereo partly drawn),IC50,[4],1.35 µM
same,IC50,[5],1.35 µM
same,inhibition,HEK293T,52%
CC1(C)CC[C@]2(C(=O)N[C@@H]3O[C@H](CO)[C@H](O)[C@H](O)[C@H]3O)[C@H](O)C[C@]3(C)C(=CC[C@@H]4[C@@]5(C)CC[C@H](O)C(C)(C)[C@@H]5CC[C@]43C)[C@@H]2C1,inhibition,HEK293T,16%
C=C(C)[C@@H]1CC[C@]2(C(=O)NCCCCCCCC(=O)N[C@@H](CC(C)C)[C@@H](O)CC(=O)O)CC[C@]3(C)[C@H](CC[C@@H]4[C@@]5(C)CC[C@H](O)C(C)(C)[C@@H]5CC[C@]43C)[C@@H]12,IC50,[12],0.03 µM
CC1(C)CC[C@]2(C(=O)N[C@@H]3O[C@H](CO)[C@@H](O)[C@H](O)[C@@H]3O)CC[C@]3(C)C(=CC[C@@H]4[C@@]5(C)CC[C@H](O)C(C)(C)[C@@H]5CC[C@]43C)[C@@H]2C1,inhibition,HEK293T,-5%
C=C(C)[C@@H]1CC[C@]2(C(=O)O)CC[C@]3(C)[C@H](CC[C@@H]4[C@@]5(C)CC[C@H](OC(=O)CC(C)(C)C(=O)O)C(C)(C)[C@@H]5CC[C@]43C)[C@@H]12 [BEVIRIMAT],solubility,[13],< 1 µg/mL
same,fraction unbound,Albumin,< 0.01
